From patent publication US8999934B2, “Treatment of astrocytes-tumor cells inhibitors of endothelin receptors” (Board of Regents, The University of Texas System, priority 2009, dated 2015)
Where “and” joins values, the source holds several entries; their conditions need not be identical. Equal values may be shown once.

How the values were obtained:
MDA231 brain metastases [1] = assay: In vivo tumor cell apoptosis, TUNEL of brain slices; design: species or system nude mice; conditions: Paclitaxel 8 mg/kg i.p. once per week, ACT-064992 50 mg/kg orally once per day, 28 days
Protocol: Brain slices of mice from different treatment groups were analyzed by in situ Terminal deoxynucleotidyl transferase dUTP nick end labeling (TUNEL). Negoescu A, et al., J Histochem Cytochem. 1996 September; 44(9):959-68. […] FIG. 21A-C.

pAKT [2] = assay: pAKT staining of MDA-MB-231 cells co-cultured with astrocytes and treated with Taxol; format: cell-based, human; conditions: MDA-MB-231 co-cultured with astrocytes; Taxol 15 ng/ml, 24 hours
Protocol: In the next set of studies, 10,000 GFP-labeled MDA-MB-231 cells were co-cultured with 20,000 astrocytes in chamber slides. Twenty-four hours later, the cultures were treated for 24 hours with Taxol (15 ng/ml) and then stained for phosphorylated pAKT (4% PFA fixation).

[3] = test system: human MDA-MB-231 breast cancer cells; format: cell-based
Protocol: (§1) Astrocytes and NIH 3T3 fibroblasts were transfected with GFP genes as previously described (S5, S6). Target tumor cells, astrocytes, or 3T3 fibroblasts were harvested from a 60-70% confluent culture by a brief (2-minute) exposure to 0.25% trypsin in a 0.1% EDTA/PBS solution. The cells were dislodged by tapping the culture flasks briskly and resuspended in CMEM. The murine astrocytes, 3T3 fibroblasts, and tumor cells were plated alone or as co-culture at a tumor cell/astrocyte/3T3 cell ratio of 1:2 onto each of the 35-mm diameter well of the sterile 6-well tissue culture multi-well dish. The cells were allowed to adhere overnight in a humidified 37° C. incubator in an atmosphere of 6.4% carbon dioxide plus air. The cultures were then washed and incubated with fresh CMEM (negative control) or medium containing various concentrations of TAXOL® (Paclitaxel; NDC 0015-3476-30, Bristol-Myers Squibb, Princeton, N.J.) and other chemotherapeutic drugs (see below).
(§2) To determine whether direct contact between tumor cells and astrocytes (or fibroblasts serving as control) was a prerequisite to produce induction of resistance to chemotherapy, we performed the co-culture assay using a Transwell-Boyden chamber, i.e., plating the tumor cells in the chamber and the ImmortoAstrocytes (or fibroblasts) in the well. […]
(§3) The supernatant medium containing floating cells were collected from each dish into a 15-ml conical centrifuge tube. The attached cells were harvested by briefly exposing the cells to 0.25% trypsin in a solution containing 0.1% EDTA/PBS. Cells were combined with the corresponding supernatant medium. The samples were pelleted by centrifugation at 100 g for 5 minutes. The pellets were resuspended in 10 ml of HBSS and further pelleted at 100 g for 5 minutes. The samples were resuspended by vortex and the cells fixed in 1 ml of 1% paraformaldehyde for 10 minutes at room temperature. The samples were then transferred into polypropylene microcentrifuge tubes and the fixed cells were washed in 1 ml of PBS and then pelleted at 10,000 g for 1 minute. The pellets were resuspended by vortex and the cells fixed overnight in 1 ml of ethanol at −20° C. The cells were subsequently vortexed and pelleted by a microcentrifuge at 10,000 g for 1 minute. The samples were then vortexed and the pellets resuspended and stained in 300 of propidium iodide (50 μg/ml; Cat. P4864, Sigma) containing RNAse (15 μg/ml; Cat. A7973, Promega, Madison, Wis.) for 20-30 minutes at 37° C.

[4] = test system: human PC14Br4 lung cancer cells; format: cell-based; conditions: for protection of tumor cells against the drug by co-culture with astrocytes: cultured alone vs with astrocytes, Adriamycin 200 ng/ml, vinblastine 3 ng/ml, vincristine 8 ng/ml, 5-FU 500 ng/ml, cisplatinum 2.4 μg/ml
Protocol: as §1, §2
In the second set of in vitro studies, we determined whether astrocyte-mediated induction of tumor cell resistance to chemotherapeutic drugs is transient or permanent. The human lung cancer PC14Br4 cells were co-cultured with either astrocytes or 3T3 fibroblasts in medium alone or medium containing 5 ng/ml paclitaxel. […] From parallel wells, we harvested surviving tumor cells and re-plated them on different monolayers of astrocytes or 3T3 cells. These co-cultures were of tumor cells first co-cultured with astrocytes and then with either astrocytes or 3T3 cells, or of tumor cells first cultured with 3T3 cells and then with either 3T3 cells or astrocytes. The second round of co-cultures then received media containing 5 ng/ml of paclitaxel. […]
as §3

ETAR = assay: ETAR/phosphoserine immunostaining of brain slices; conditions: Paclitaxel 8 mg/kg i.p. once per week, ACT-064992 50 mg/kg orally once per day, 28 days
Protocol: Female nude mice (10-12 weeks old) were injected in the internal carotid artery with 10,000 viable MDA231 cells. Two weeks after the injection when brain metastases were established, the mice were randomized into 4 treatment groups (n=10): 1) Control (injected with vehicle solution); 2) Paclitaxel (8 mg/kg administered intraperitoneally once per week); 3) ACT-064992 (50 mg/kg administered orally once per day); and 4) Combination of ACT-064992 and Paclitaxel. All mice were euthanized after 28 days of treatment and autopsied. The brains were collected for histologic study and immunohistochemistry.
Brain slices of mice from the four treatment groups were immunostained for ETAR (red) and phosphoserine (green) colocalization produced orange-yellow color.

[5] = test system: MDA231 breast cancer brain metastasis; assay: Survival study, experimental human MDA231 breast cancer brain metastasis; format: in vivo, nude mice; conditions: 5×10^3 MDA231 cells, treatment from day 14, Paclitaxel 5 mg/kg i.p. once weekly, individual mice
Protocol: 5×10^3 MDA231 cells were injected according to the protocol in Experiment 10. Treatment began on day 14 after injection according to the protocol in Experiment 10. A Survival curve is drawn and the p-value derived to compare the statistical significance among treatment groups.
Control (vehicle): daily oral administrations and once weekly i.p. injections.
Paclitaxel (5 mg/kg): daily oral vehicle administrations and once weekly i.p. injection of Paclitaxel.
ACT064992 (10 mg/kg): daily oral ACT064992 administrations and once weekly i.p. injections of Paclitaxel.

MDA231 brain metastases [6] = assay: In vivo tumor cell proliferation, CD31/Ki67 staining of brain slices; design: species or system nude mice; conditions: Paclitaxel 8 mg/kg i.p. once per week, ACT-064992 50 mg/kg orally once per day, 28 days
Excerpt: Representative brain slices from the four treatment groups were stained for CD31 (endothelial cell marker) and Ki67 (cell proliferation marker). […] FIGS. 20A, B, C and D, respectively.

MDA231 brain metastases [7] = assay: In vivo tumor growth of MDA231 brain metastases (brain sections fixed and stained); design: species or system nude mice; conditions: Paclitaxel 8 mg/kg i.p. once per week, ACT-064992 50 mg/kg orally once per day, 28 days of treatment
Protocol: To further validate the efficacy of endothelin receptor antagonist therapy for existing brain metastasis, the Inventors performed exemplary in vivo experiments using mice. Nude mice were injected with 10,000 viable MDA231 cells mice by way of the internal carotid artery. […] The Inventors thus started treatments at this time point.
The treatment groups at two weeks post injection were: Control (vehicle) (FIG. […] 18B); ACT-064992 50 mg/kg, p.o. daily (FIG. […] 18D).
All mice were killed on day 28 of treatment. Brain sections were fixed and stained. Brain metastases were evaluated visually. Exemplary specimens are shown in FIG. 18A-D at the same magnifications.

[8] = test system: tumor cells co-cultured with astrocytes; assay: In vitro cell based chemoresistance assay with endothelin receptor antagonists (overall statement); conditions: higher dose Bosentan
Excerpt: Using the in vitro cell based chemoresistance assay scheme described above, the Inventors tested two endothelin receptor antagonists having dual ETAR and ETBR affinity to assess the degree of astrocyte-mediated protection against the cytotoxic effects of the chemotherapy agent.

pMAPK = assay: Expression of survival factor pMAPK in co-cultures of astrocytes and tumor cells; format: cell-based; conditions: ACT-064992 added to co-cultures of astrocytes and tumor cells
Protocol: (§4) ETR antagonists as shown above were ineffective as a single agent chemotherapy. This negative result made the dramatic effect seen with ETR antagonists as a component of combination therapies highly unexpected. In co-culture experiments, cell culture ratios were 1:2 tumor cell:astrocyte cell (50, 000:100,000), and treatments were using paclitaxel (TAXOL®) (6 ng/ml) and/or ACT-064992 (100 nM) for 48 hours (FIG. 15; *p<0.01). For the control experiments using MDA-MB-231 cells, the same astrocyte-mediated protection from paclitaxel occurred as in prior experiments. There were two surprising results from these combination experiments.

pAKT [9] = assay: Expression of survival factor pAKT in co-cultures of astrocytes and tumor cells; format: cell-based; conditions: ACT-064992 added to co-cultures of astrocytes and tumor cells
Protocol: as §4

ETAR/ETBR = conditions: requires ⅓ the dose; cited from earlier work
[10] = 100 nM, 48 hours, alone or with astrocytes or with 3T3 fibroblasts
[11] = tumor cell-astrocyte co-cultures 1:2, paclitaxel 6 ng/ml, ACT-064992 100 nM, 48 hours

## CC(=O)O[C@H]1C(=O)[C@@]2(C)[C@H]([C@H](OC(=O)c3ccccc3)[C@]3(O)C[C@H](OC(=O)[C@H](O)[C@@H](NC(=O)c4ccccc4)c4ccccc4)C(C)=C1C3(C)C)[C@]1(OC(C)=O)CO[C@@H]1C[C@@H]2O [paclitaxel]
MDA231 brain metastases [1]
  apoptotic (TUNEL) cells in brain: few to no apoptotic cells
pAKT [2]
  pAKT expression by tumor cells: high levels of pAKT
[3]; paclitaxel 5 ng/ml, 72 hours, co-culture with astrocytes (not 3T3 fibroblasts), mean±S.D., P<0.01
  reduction of relative apoptotic index of tumor cells by culturing with astrocytes (increased chemoresistance): 58.3 ± 8.9%
[4]; paclitaxel 5 ng/ml
  protection of tumor cells against the drug by co-culture with astrocytes: significant (P<0.01) protection
[4]; paclitaxel 5 ng/ml, 72 hours, co-culture with astrocytes (not 3T3 fibroblasts), mean±S.D., P<0.05
  reduction of relative apoptotic index of tumor cells by culturing with astrocytes (increased chemoresistance): 61.8±6.7%
ETAR
  phosphorylation of ETAR in brain: expressed phosphorylated ETAR
[5]; oral vehicle daily
  Day of death (after treatment): 49 day and 53 day and 60 day and 63 day and 74 day (2×) and 78 day
MDA231 brain metastases [6]
  proliferating (Ki67) cells in brain: a large number of proliferating cells
MDA231 brain metastases [7]
  brain metastatic tumors (histology): well defined metastatic tumors

## CC[C@]1(O)C[C@H]2CN(CCc3c([nH]c4ccccc34)[C@@](C(=O)OC)(c3cc4c(cc3OC)N(C=O)[C@H]3[C@@](O)(C(=O)OC)[C@H](OC(C)=O)[C@]5(CC)C=CCN6CC[C@]43[C@@H]65)C2)C1 [vincristine]
[4]; paclitaxel 5 ng/ml
  protection of tumor cells against the drug by co-culture with astrocytes: significant (P<0.01) protection

## COc1cccc2c1C(=O)c1c(O)c3c(c(O)c1C2=O)C[C@@](O)(C(=O)CO)C[C@@H]3O[C@H]1C[C@H](N)[C@H](O)[C@H](C)O1 [Adriamycin]
[4]; paclitaxel 5 ng/ml
  protection of tumor cells against the drug by co-culture with astrocytes: significant (P<0.01) protection

## O=c1[nH]cc(F)c(=O)[nH]1 [5-FU]
[4]; paclitaxel 5 ng/ml
  protection of tumor cells against the drug by co-culture with astrocytes: significant (P<0.01) protection

## N.N.[Cl][Pt][Cl] [cisplatinum]
[4]; paclitaxel 5 ng/ml
  protection of tumor cells against the drug by co-culture with astrocytes: significant (P<0.01) protection

## CC[C@]1(O)C[C@@H]2CN(CCc3c([nH]c4ccccc34)[C@@](C(=O)OC)(c3cc4c(cc3OC)N(C)[C@H]3[C@@](O)(C(=O)OC)[C@H](OC(C)=O)[C@]5(CC)C=CCN6CC[C@]43[C@@H]65)C2)C1 [vinblastine]
[4]; paclitaxel 5 ng/ml
  protection of tumor cells against the drug by co-culture with astrocytes: significant (P<0.01) protection

## COc1ccccc1Oc1c(NS(=O)(=O)c2ccc(C(C)(C)C)cc2)nc(-c2ncccn2)nc1OCCO [Bosentan]
[8]
  results of Bosentan experiments compared with the ACT-064992 experiments: analogous results

## CCCNS(=O)(=O)Nc1ncnc(OCCOc2ncc(Br)cn2)c1-c1ccc(Br)cc1 [ACT-064992, N-[5-(4-bromophenyl)-6-(2-(5-bromopyrimidin-2-yloxy)ethoxy)-pyrimidin-4-yl]-N′-propylaminosulfonamide]
pMAPK
  expression of survival factor pMAPK: inhibited the expression
MDA231 brain metastases [1]
  apoptotic (TUNEL) cells in brain: few to no apoptotic cells
[3]; [10]
  cytotoxic effects (degree of apoptosis): did not produce any measurable cytotoxic effects
[3]; [11]
  effect on astrocyte-mediated protection from paclitaxel: negate the astrocyte-mediated protection from paclitaxel
  efficacy of paclitaxel compared to control experiments without astrocytes (super-sensitization): enhanced the efficacy of paclitaxel
[4]; [10]
  cytotoxic effects (degree of apoptosis): did not produce any measurable cytotoxic effects
ETAR
  phosphorylation of ETAR in brain: prevented phosphorylation of the ETAR
pAKT [9]
  expression of survival factor pAKT: inhibited the expression
[5]; ACT064992 10 mg/kg oral daily
  Day of death (after treatment): 51 days and 63 days and 68 days and 75 days and 78 days and 82 days
MDA231 brain metastases [6]
  proliferating (Ki67) cells in brain: a large number of proliferating cells
ETAR/ETBR
  pharmaceutical activity relative to Bosentan: roughly three times more pharmaceutically active than Bosentan
MDA231 brain metastases [7]
  brain metastatic tumors (histology): well defined metastatic tumors
